Results taken from patent US9284318B2, “Protein kinase inhibitors” (Pharmascience, Inc., priority 2011, dated 2016).

Columns and labels:
[1] = system: M-NFS-60 M-CSF-dependent myeloid leukemia cells; experiment: Murine M-CSF-dependent M-NFS-60 cell survival assay; assay type: cell-based; details: Mus musculus; cell survival at 72 hours, 20 ng/ml M-CSF, Cell Titer-Glo
Description: Cellular Assays: Murine M-CSF-Dependent M-NFS-60 Cell Survival Assay
Murine M-NFS-60 M-CSF-dependent myeloid leukemia cells were purchased from ATCC (CRL-1838). Cells were routinely cultured at 37° C., 5% CO2 in complete medium (RPMI supplemented with 10% FBS, 1% penicillin/streptomycin, 50 uM beta mercaptoethanol) containing 30 ng/ml recombinant murine M-CSF (Peprotech 315-02). For survival assays, cells were transferred to depleted medium (complete medium depleted of M-CSF) for 24 hours prior to initiation of each experiment. M-CSF-starved cells were harvested and re-suspended in complete medium containing 20 ng/ml M-CSF. Cells were seeded at 25,000 cells/well in 96-well plates and incubated for 1 hour at 37° C., 5% CO2. Cells were treated with 1 uM or 10 uM compound curves in triplicate and cell survival was measured 72 hours later by Cell Titer-Glo Luminescent Assay (Promega). Luminescence was read using a Tecan Infinite F200 microplate reader. EC50 values (50% survival in the presence of compound as compared to vehicle treated controls) were calculated from non-linear fit dose response compound curves using GraphPad Prism Software.

[2] = system: MV4-11 cells; experiment: Human MV4-11 biphenotypic B myelomonocytic leukemia cell survival assay; assay type: cell-based; details: cell survival at 72h, Cell Titer-Glo
Description: Human MV4-11 Biphenotypic B Myelomonocytic Leukemia Cell Survival Assay
Biphenotypic B myelomonocytic leukemia MV4-11 cells (ATCC CRL-9591) were cultured in suspension at 37° C., 5% CO2 in complete medium (RPMI supplemented with 10% FBS, 1% penicillin/streptomycin). One day prior to treatment, cells per seeded in 96-well plates at 8000 cells/well in complete medium. The following day, triplicate wells were treated with compound curves of 100, 1000 or 10,000 nM starting concentration according to compound potency. Cell survival was measured 72h later by Cell Titer-Glo Luminescent Assay (Promega). Luminescence was read using a Tecan Infinite F200 microplate reader. EC50 values (50% survival in the presence of compound as compared to vehicle treated controls) were calculated from non-linear fit dose response compound curves using CambridgeSoft BioAssay software (Perkin Elmer).

[3] = target: T1, recombinant human colony stimulating factor 1 receptor (FMS) (Homo sapiens, UniProt P07333); experiment: Biochemical cFMS (CSF1R) fluorescence polarization kinase assay; details: 10 μM ATP, 100 μM substrate, 60 minutes
T1 construct: containing the catalytic domain (amino acids 538-910); His tag; purchased Invitrogen; host or cells: insect cells
T1 sequence (P07333 538-910): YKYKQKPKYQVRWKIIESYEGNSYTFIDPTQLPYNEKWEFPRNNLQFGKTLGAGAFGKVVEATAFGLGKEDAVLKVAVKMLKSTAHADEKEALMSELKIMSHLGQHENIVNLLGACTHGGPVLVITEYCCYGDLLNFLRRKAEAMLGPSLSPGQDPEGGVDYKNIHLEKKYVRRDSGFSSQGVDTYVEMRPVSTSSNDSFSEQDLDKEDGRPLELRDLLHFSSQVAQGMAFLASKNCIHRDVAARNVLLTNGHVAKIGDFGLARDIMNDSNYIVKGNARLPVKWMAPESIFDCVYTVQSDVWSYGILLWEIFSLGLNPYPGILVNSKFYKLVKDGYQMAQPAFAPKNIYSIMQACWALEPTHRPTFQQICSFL
Description: Biochemical cFMS (CSF1R) Assay:
Fluorescence polarization-based kinase biochemical assays were performed in 384 well-plate format using histidine tagged recombinant human colony stimulating factor 1 receptor (FMS) supplied from Invitrogen™ (containing the catalytic domain (amino acids 538-910), expressed in insect cells and activated in vitro via auto phosphorylation) and a modified protocol of the KinEASE™ FP Fluorescein Green Assay supplied from Millipore™.
Kinase reactions were performed in 384 well plate format at room temperature for 60 minutes in presence of 100 μM substrate, 10 μM ATP and variable test article concentrations. The reaction was stopped with EDTA/KinEASE™ detection reagents and the polarization measured on a Tecan 500 instrument. From the dose-response curve obtained, the IC50 was estimated using Graph pad Prisms® using a non linear fit curve.

SMILES | EC50 [1] [nM] | EC50 [2] [nM] | IC50 [3] [nM]
Nc1ncnc2c3c(n(-c4ccc(NC(=O)Nc5ccc(Cl)c(C(F)(F)F)c5)cc4)c12)CCC3 [Compound 59] | 100 to 1000 | < 100 | 100 to 1000
Nc1ncnc2c3c(n(-c4ccc(NC(=O)Nc5ccc(OC(F)F)cc5)cc4)c12)CCC3 [Compound 27] | < 100 | < 100 | < 100
COc1cc(NC(=O)Nc2ccc(-n3c4c(c5ncnc(N)c53)CCC4)cc2)ccc1F [Compound 35] | 100 to 1000 | < 100 | < 100
COc1cccc(NC(=O)Nc2ccc(-n3c4c(c5ncnc(N)c53)CCC4)cc2)c1 [Compound 11] | < 100 | < 100 | < 100
Nc1ncnc2c3c(n(-c4ccc(NC(=O)NCc5ccc(F)cc5)cc4)c12)CCC3 [Compound 52] | 100 to 1000 | < 100 | 
Nc1ncnc2c3c(n(-c4ccc(NC(=O)OCc5ccccc5)cc4)c12)COC3 [Compound 31] |  | 100 to 1000 | 
CS(=O)(=O)c1cccc(NC(=O)Nc2ccc(-n3c4c(c5ncnc(N)c53)CCC4)cc2)c1 [Compound 72] | 100 to 1000 | < 100 | 100 to 1000
Nc1ncnc2c3c(n(CCCc4ccccc4)c12)CCC3 [Compound 40] |  | 100 to 1000 | 
Nc1ncnc2c3c(n(-c4ccc(NC(=O)Nc5cccc(OC(F)F)c5)cc4)c12)CCC3 [Compound 57] | < 100 | < 100 | 100 to 1000
Nc1ncnc2c3c(n(-c4ccc(NC(=O)Nc5cc(C(F)(F)F)ccc5F)c(F)c4)c12)CCC3 [Compound 62] | 100 to 1000 | < 100 | 100 to 1000
Cc1ccc(F)c(NC(=O)Nc2ccc(-n3c4c(c5ncnc(N)c53)CCC4)cc2)c1 [Compound 43] | < 100 | < 100 | < 100
Nc1ncnc2c3c(n(-c4ccc(NC(=O)NCCc5ccccc5)cc4)c12)CCC3 [Compound 46] | 100 to 1000 | < 100 | 100 to 1000
Nc1ncnc2c3c(n(-c4ccc(NC(=O)Nc5ccccc5OC(F)F)cc4)c12)CCC3 [Compound 68] | 100 to 1000 | < 100 | 100 to 1000
Nc1ncnc2c3c(n(-c4ccc(NC(=O)Nc5cc(C(F)(F)F)ccc5F)cc4)c12)COC3 [Compound 67] | 100 to 1000 | < 100 | 100 to 1000
Nc1ncnc2c3c(n(-c4ccc(NC(=O)NCCc5ccc(F)cc5)cc4)c12)CCC3 [Compound 42] | 100 to 1000 | < 100 | 
COc1cc(NC(=O)Nc2ccc(-n3c4c(c5ncnc(N)c53)CCC4)cc2)cc(C(F)(F)F)c1 [Compound 70] |  | < 100 | 
Nc1ncnc2c3c(n(-c4ccc(NC(=O)Nc5ccccc5C(F)(F)F)cc4)c12)CCC3 [Compound 23] | 100 to 1000 | > 1000 | 100 to 1000
C[C@@H](NC(=O)Nc1ccc(-n2c3c(c4ncnc(N)c42)CCC3)cc1)c1ccc(F)cc1 [Compound 73] | 100 to 1000 | < 100 | 100 to 1000
Nc1ncnc2c3c(n(-c4ccc(NC(=O)Nc5ccccc5Cl)cc4)c12)CCC3 [Compound 36] | 100 to 1000 | > 1000 | 100 to 1000
COc1ccc(NC(=O)Nc2ccc(-n3c4c(c5ncnc(N)c53)CCC4)cc2)c(F)c1 [Compound 54] | < 100 | < 100 | < 100
COc1ccc(C(F)(F)F)cc1NC(=O)Nc1ccc(-n2c3c(c4ncnc(N)c42)CCC3)cc1 [Compound 58] | 100 to 1000 | < 100 | 100 to 1000

SMILES | EC50 [1] [nM] | EC50 [2] [nM] | IC50 [3] [nM]
Nc1ncnc2c3c(n(-c4ccc(Nc5ccccc5)cc4)c12)CCC3 [Compound 12] | > 1000 | > 1000 | > 1000
CS(=O)(=O)c1ccc(NC(=O)Nc2ccc(-n3c4c(c5ncnc(N)c53)CCC4)cc2)cc1 [Compound 64] | > 1000 | 100 to 1000 | 100 to 1000
Nc1ncnc2c3c(n(-c4ccc(NC(=O)Nc5ccc(Cl)cc5)cc4)c12)CCC3 [Compound 22] | < 100 | 100 to 1000 | 
COc1ccc(NC(=O)Nc2ccc(-n3c4c(c5ncnc(N)c53)CCC4)cc2)cc1F [Compound 56] | < 100 | < 100 | < 100
CC(C)(C)c1cc(NC(=O)Nc2ccc(-n3c4c(c5ncnc(N)c53)CCC4)cc2)no1 [Compound 74] | < 100 |  | < 100
Nc1ccc(-n2c3c(c4ncnc(N)c42)COC3)cc1 [Compound 32] |  | 100 to 1000 | 
N#Cc1ccccc1NC(=O)Nc1ccc(-n2c3c(c4ncnc(N)c42)CCC3)cc1 [Compound 71] | > 1000 | 100 to 1000 | > 1000
COc1ccc(-n2c3c(c4ncnc(N)c42)CCC3)cc1 [Compound 7] |  | > 1000 | 
Nc1ccc(-n2c3c(c4ncnc(N)c42)CCC3)cc1 [Compound 2] |  | < 100 | 
Nc1ccc(-n2c3c(c4ncnc(N)c42)CCCC3)cc1 [Compound 18] |  | 100 to 1000 | 
CS(=O)(=O)Nc1ccc(-n2c3c(c4ncnc(N)c42)CCC3)cc1 [Compound 6] |  | > 1000 | 
Nc1ncnc2c3c(n(Cc4ccccc4)c12)CCC3 [Compound 15] |  | > 1000 | 
Nc1ncnc2c3c(n(-c4ccccc4)c12)CCC3 [Compound 49] |  | 100 to 1000 | 
Nc1ncnc2c3c(n(CCCCc4ccccc4)c12)CCC3 [Compound 51] |  | > 1000 | 
Nc1ncnc2c3c(n(-c4ccc(O)cc4)c12)CCC3 [Compound 26] |  | > 1000 | 
COc1ccc(-n2c3c(c4ncnc(N)c42)CCC3)cc1OC [Compound 34] |  | > 1000 | 
C[C@H](NC(=O)Nc1ccc(-n2c3c(c4ncnc(N)c42)CCC3)cc1)c1ccccc1 [Compound 38] | 100 to 1000 | > 1000 | 
Nc1ncnc2c3c(n(-c4ccc5c(c4)OCO5)c12)CCC3 [Compound 5] |  | > 1000 | 
Nc1ncnc2c3c(n(CCc4ccccc4)c12)CCC3 [Compound 29] |  | > 1000 | 
CC(=O)Nc1ccc(-n2c3c(c4ncnc(N)c42)CCC3)cc1 [Compound 37] |  | > 1000 | 
COc1ccc(NC(=O)Nc2ccc(-n3c4c(c5ncnc(N)c53)CCC4)cc2)cc1 [Compound 13] | < 100 | < 100 | 
